Test [1] deals with T1, Bromodomain-containing protein 7 (Homo sapiens, UniProt Q9NPI1).
T1 sequence (Q9NPI1 whole entry): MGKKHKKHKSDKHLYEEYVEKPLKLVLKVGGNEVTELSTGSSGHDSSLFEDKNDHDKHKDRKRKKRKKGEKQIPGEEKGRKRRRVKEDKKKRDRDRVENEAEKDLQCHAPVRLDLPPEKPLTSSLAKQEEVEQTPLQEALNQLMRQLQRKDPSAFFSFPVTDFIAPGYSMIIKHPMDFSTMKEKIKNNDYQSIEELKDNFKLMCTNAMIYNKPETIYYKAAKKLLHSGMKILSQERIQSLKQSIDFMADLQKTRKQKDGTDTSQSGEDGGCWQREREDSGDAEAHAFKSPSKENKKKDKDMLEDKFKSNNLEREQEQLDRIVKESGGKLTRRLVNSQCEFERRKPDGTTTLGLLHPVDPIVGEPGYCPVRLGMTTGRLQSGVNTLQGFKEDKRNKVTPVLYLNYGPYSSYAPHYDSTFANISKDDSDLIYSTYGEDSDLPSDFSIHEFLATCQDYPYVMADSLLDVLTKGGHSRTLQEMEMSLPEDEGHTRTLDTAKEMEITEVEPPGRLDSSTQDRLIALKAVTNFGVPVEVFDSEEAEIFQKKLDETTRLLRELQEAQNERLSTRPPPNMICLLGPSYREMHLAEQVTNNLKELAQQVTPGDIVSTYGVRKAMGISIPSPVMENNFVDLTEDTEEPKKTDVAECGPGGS
As to the kind of experiment: Displacement of FAM-labeled BI-FAMb from N-terminal His TEV-tagged human recombinant BRD7 bromodomain expressed in Escherichia coli BL21(DE3) by competitive fluorescence polarization assay. In general terms: Polarisation of emitted light reports the rotation of a fluorescent probe.

In test [2] the target is T2, Bromodomain-containing protein 9 (Homo sapiens, UniProt Q9H8M2).
T2 sequence (Q9H8M2 whole entry): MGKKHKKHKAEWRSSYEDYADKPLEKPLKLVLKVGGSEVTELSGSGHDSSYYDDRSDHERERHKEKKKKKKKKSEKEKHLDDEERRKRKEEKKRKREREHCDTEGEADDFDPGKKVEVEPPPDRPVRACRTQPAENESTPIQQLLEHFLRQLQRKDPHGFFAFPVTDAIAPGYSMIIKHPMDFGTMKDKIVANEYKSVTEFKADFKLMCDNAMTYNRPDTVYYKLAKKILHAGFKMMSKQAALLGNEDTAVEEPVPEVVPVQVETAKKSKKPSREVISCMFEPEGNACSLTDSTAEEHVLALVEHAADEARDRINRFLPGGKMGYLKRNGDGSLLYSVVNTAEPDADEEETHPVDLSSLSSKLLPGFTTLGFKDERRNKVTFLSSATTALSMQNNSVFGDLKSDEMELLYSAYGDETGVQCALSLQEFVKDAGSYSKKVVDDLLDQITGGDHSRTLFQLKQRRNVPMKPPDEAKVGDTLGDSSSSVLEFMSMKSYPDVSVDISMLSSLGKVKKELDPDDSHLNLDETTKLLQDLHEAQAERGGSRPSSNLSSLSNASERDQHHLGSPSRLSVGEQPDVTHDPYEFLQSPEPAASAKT
As to the kind of experiment: Displacement of FAM-labeled BI-FAMb from N-terminal His TEV-tagged human recombinant BRD9 bromodomain expressed in Escherichia coli BL21(DE3) by competitive fluorescence polarization assay.

For test [3], the system named is CWR22R. Description: Antiproliferative activity against human 22Rv1 cells transfected with shBRD7-2 assessed as inhibition of cell growth at 2.5 uM measured after 4 days by CellTiter-Glo luminescent assay. Format: functional. Also noted: scale not given: the % may be the effect or the level left. The conditions noted are these: time 4 day.
The test system of test [4] is PC-3. As to the kind of experiment: Antiproliferative activity against AR-negative human PC-3 cells assessed as inhibition of cell growth at 5 uM incubated for 4 days by CellTiter-Glo luminescent assay. In kind it is functional, cell-based. The conditions noted are these: time 4.0 day. A general note: ATP-based viability assays read luminescence as a measure of living cells.

In test [5] the target is T3, Bromodomain-containing protein 9 (Homo sapiens) (UniProt Q9H8M2).
T3 sequence (whole entry): T2 sequence (Q9H8M2 whole entry)
As to the kind of experiment: Inhibition of human partial length BRD9 bromodomain (130 to 259 residues) expressed in bacterial expression system at 2 uM by BROMOscan analysis.

Test [6] concerns the target T2, Bromodomain-containing protein 9. Description: Binding affinity to human partial length BRD9 bromodomain (130 to 259 residues) expressed in bacterial expression system by BROMOscan KdELECT analysis.
Test [7] has as its target T4, Bromodomain-containing protein 7 (Homo sapiens) (UniProt Q9NPI1).
T4 sequence (whole entry): T1 sequence (Q9NPI1 whole entry)
As to the kind of experiment: Inhibition of human partial length BRD7 bromodomain (125 to 254 residues) expressed in mammalian expression system at 2 uM by BROMOscan analysis.

Test [8] addresses T1, Bromodomain-containing protein 7. As to the kind of experiment: Binding affinity to human partial length BRD7 bromodomain (125 to 254 residues) expressed in mammalian expression system by BROMOscan KdELECT analysis.
The test system of test [9] is PC-3. Description: Antiproliferative activity against AR-negative human PC-3 cells assessed as inhibition of cell growth at 1 uM measured after 4 days by CellTiter-Glo luminescent assay. Format: functional, cell-based. The conditions noted are these: time 4.0 day.
The target of test [10] is T3, Bromodomain-containing protein 9 (Homo sapiens). Description: Binding affinity to N-terminal His TEV-tagged human recombinant BRD9 bromodomain expressed in Escherichia coli BL21(DE3) by microscale thermophoresis assay. On the technique in general: MST reads how a fluorescent partner responds to local heating, with and without ligand.
Test [11] is described as follows: Selectivity ratio of IC50 for antiproliferative activity against human AR-negative PC-3 cells to IC50 for antiproliferative activity against human AR-positive C-42 cells. In kind it is functional.
Test [12] is described as follows: cells. The conditions noted are these: Homo sapiens, HEK-293T, 2 h.
Description: Displacement of NanoBRET BRD Tracer-02 from Nanoluc-fused BRPF1B bromodomain (unknown origin) expressed in HEK293T cells incubated for 2 hrs by NanoBRET assay
The subject of test [13] is CWR22R. As to the kind of experiment: Antiproliferative activity against human 22Rv1 cells transfected with shBRD7-1 assessed as inhibition of cell growth at 2.5 uM measured after 4 days by CellTiter-Glo luminescent assay. In kind it is functional. Set-up: scale not given: the % may be the effect or the level left. The conditions noted are these: time 4 day.
Test [14] deals with T1, Bromodomain-containing protein 7. Description: Displacement of NanoBRET BRD Tracer-02 from Nanoluc-fused BRD7 bromodomain (unknown origin) expressed in HEK293T cells incubated for 2 hrs by NanoBRET assay. In kind it is cell-based.
Test [15] has the same target. Description: Binding affinity to N-terminal His TEV-tagged human recombinant BRD7 bromodomain expressed in Escherichia coli BL21(DE3) by microscale thermophoresis assay.
Test [16] is described as follows: Selectivity ratio of IC50 for antiproliferative activity against human AR-negative PC-3 cells to IC50 for antiproliferative activity against human AR-positive LNCaP cells. Format: functional.
Test [17] addresses T3, Bromodomain-containing protein 9 (Homo sapiens). As to the kind of experiment: Inhibition of BRD9 binding to chromatin in HEK293T cells at 10 uM incubated for 24 hrs by immunoblot analysis. In kind it is cell-based.
In test [18] the test system is CWR22R. As to the kind of experiment: Antiproliferative activity against human 22Rv1 cells transfected with shBRD7-2 assessed as inhibition of cell growth at 5 uM measured after 4 days by CellTiter-Glo luminescent assay. In kind it is functional. The conditions noted are these: time 4 day. Also noted: scale not given: the % may be the effect or the level left.
For test [19], the target named is T2, Bromodomain-containing protein 9. As to the kind of experiment: Displacement of NanoBRET BRD Tracer-02 from Nanoluc-fused BRD9 bromodomain (unknown origin) expressed in HEK293T cells incubated for 2 hrs by NanoBRET assay. In kind it is cell-based.
Test [20] concerns LNCaP. Description: Antiproliferative activity against AR-positive human LNCaP cells assessed as inhibition of cell growth at 1 uM measured after 4 days by CellTiter-Glo luminescent assay. In kind it is functional, cell-based. The conditions noted are these: time 4.0 day.
Test [21] concerns CWR22R. As to the kind of experiment: Antiproliferative activity against human 22Rv1 cells transfected with empty vector assessed as inhibition of cell growth at 5 uM measured after 4 days by CellTiter-Glo luminescent assay. Set-up: scale not given: the % may be the effect or the level left. Format: functional. The conditions noted are these: time 4 day.
The subject of test [22] is CWR22R. Description: Antiproliferative activity against human 22Rv1 cells transfected with shBRD7-1 assessed as inhibition of cell growth at 5 uM measured after 4 days by CellTiter-Glo luminescent assay. Format: functional. Set-up: scale not given: the % may be the effect or the level left. The conditions noted are these: time 4 day.
Test [23] concerns CWR22R. As to the kind of experiment: Antiproliferative activity against human 22Rv1 cells transfected with empty vector assessed as inhibition of cell growth at 2.5 uM measured after 4 days by CellTiter-Glo luminescent assay. In kind it is functional. Also noted: scale not given: the % may be the effect or the level left. The conditions noted are these: time 4 day.
The species named for test [24] is Homo sapiens. Description: Binding affinity to His TEV-tagged human recombinant BRPF1B expressed in Escherichia coli BL21(DE3) assessed as protein stabilization by measuring increase in melting temperature at 1 uM measured for 120 mins by differential scanning fluorimetry.
The species entered for test [25] is Homo sapiens. As to the kind of experiment: Binding affinity to His TEV-tagged human recombinant BRPF1B expressed in Escherichia coli BL21(DE3) assessed as protein stabilization by measuring increase in melting temperature at 25 uM measured for 120 mins by differential scanning fluorimetry.

The structures appear in SMILES notation. Calls of active or inactive are those of the source. No cut-off for these calls is given here.

As to `COc1ccc(-c2cn(C)c(=O)c3ccccc23)c(OC)n1`, the IC50 (in general, the point on the concentration scale where inhibition reaches its midpoint) in test [1] was found to be 2.9 µM; in test [2], 1.5 µM. Further, the Ki (in general, a dissociation constant, usually derived from enzyme kinetics or from competition with a known ligand) came out at 0.31 µM in [1] and 0.13 µM in [2].

Consider `COc1ccc(-c2ccc3c(C)cc(=O)n(C)c3c2)c(OC)n1`, for which the Activity is 22% in test [3]; 13% in [13]; 38% in [18]; 73% in test [21]; 28% in test [22]; 41% in test [23]. Besides, the result in test [4] and in [20] was Active. Also, the IC50 in [1] was 5.4 µM; in test [12], more than 10 µM; in test [14] (read-out: IC50), 1.1 µM; in test [2], more than 300 µM; in [19] (read-out: IC50), 3.2 µM. Besides, the Ki in test [1] was 1.3 µM; in test [2], more than 20 µM. Further, the inhibition result in test [5] and in test [17] was “inactive” each time. The results for the Kd in test [6], in test [8] and in test [15] were 0.655 µM, 0.34 µM and 2.2 µM, respectively. For the same molecule, in [7], the inhibition result was “Active”. Besides, the result in [9] and in [10] was inactive. Further, the “Ratio IC50” value in [11] and in [16] was 3 throughout.

As for `Cc1cc(C)cc(-c2cn(C)c(=O)c3ccccc23)c1`, the concentration for half-maximal inhibition (IC50) stood at 8.1 µM in [1] and 4 µM in test [2]. The values for the Ki in [1] and in test [2] were 0.86 µM and 0.34 µM, respectively.

Take `COc1ccccc1C(=O)Nc1cc2c(cc1N1CCCCC1)n(C)c(=O)n2C`: the IC50 result in [14] (hek293t) and in [19] (hek293t) was “Not Active” throughout. For the same molecule, the result in test [24] was Active.

On to `CCn1cc(-c2cccc(C(F)(F)F)c2)c2sc(C(=N)NC3CCS(=O)(=O)CC3)cc2c1=O`, for which, in test [17], the inhibition result was “Active”.

On to `COc1ccc(-c2ccc3c(C)cc(=O)n(C)c3c2)c(C)n1`, for which the result in [4] and in [25] was Active. Besides, the IC50 in test [1] was found to be 1.6 µM; in test [12] it was 2.8 µM; in [14] (read-out: IC50), 0.85 µM; in test [2], 2.7 µM; in test [19] (read-out: IC50), 3.3 µM. Moreover, the Ki came to 0.17 µM in test [1] and 0.23 µM in [2]. Moreover, the inhibition entry in test [5] and in [17] was “inactive” each time. Moreover, the Kd (as a rule, a measure of binding affinity in units of concentration) in [6] came to 0.65 µM; in [8], 0.29 µM; in test [15], 1.2 µM. In addition, in [7], the inhibition result is “Active”. Moreover, the outcome in [10] was inactive. Further, the “Ratio IC50” value in [11] and in [16] was 3 throughout. For the same molecule, the Activity in [21] came to 52%; in test [23], 26%.
